Assay results as given in patent publication US6608082B1, “Treatment of erectile dysfunction using isoquinoline compound melanocortin receptor ligands” (Lion Bioscience AG, priority 1998, dated 2003).
pIC50: −log10 of the molar value. Read-outs that look alike come from different tables or passages of the source. Blank lines part the entries; values can stand above or below the compound they belong to.

Target: T1, MCR-1 (Homo sapiens, UniProt Q01726)
T1 construct: expressed in transfected cells; host or cells: HEK 293
T1 sequence (Q01726 whole entry): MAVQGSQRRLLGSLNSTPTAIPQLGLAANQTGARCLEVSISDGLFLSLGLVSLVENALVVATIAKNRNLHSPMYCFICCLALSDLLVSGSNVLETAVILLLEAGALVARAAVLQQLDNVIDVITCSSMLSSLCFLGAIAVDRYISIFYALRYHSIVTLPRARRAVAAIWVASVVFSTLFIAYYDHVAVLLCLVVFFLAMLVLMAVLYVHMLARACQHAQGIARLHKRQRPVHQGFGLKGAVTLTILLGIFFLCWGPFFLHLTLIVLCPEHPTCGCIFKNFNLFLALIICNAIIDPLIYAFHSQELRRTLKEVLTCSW
Assay: Melanocortin receptor binding assay, competition with 125I-HP 467, HEK 293 cells expressing hMCR-1
Details: for % Disp. MC-1 10 μM: displacement of 125I-HP 467 at 10 μM isoquinoline compound; for pIC50: read-out: MC-1 IC50; for % Disp. of 125I-HP 467 (first of duplicate) / % Disp. of 125I-HP 467 (second of duplicate): 10 μM isoquinoline compound; for % Disp. of 125I-HP 467 (first of duplicate): HEK 293 cells expressing MCR-1, duplicate 1; for % Disp. of 125I-HP 467 (second of duplicate): HEK 293 cells expressing MCR-1, duplicate 2
Outline: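 Intact-cell competition binding, 2.5 hr at 37 °C, in PBS/10% calf serum/1 mM CaCl2; hMCR-4 cells at 4×10^3 per tube, hMCR-1 cells at 2×10^4 per tube. Filtration on BSA/CaCl2-soaked GF/B, cold 50 mM Tris pH 7.4 washes, scintillation count.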

[1] = competition with 125I-HP 467, HEK 293 cells expressing MCR-1
[2] = inhibition of binding of 125I-HP 467, HEK 293 cells expressing MCR-1

SMILES: CNC(CN)CN1Cc2ccccc2C(CNC2CCCCC2)C1c1cccc(C)n1 (centres unmarked) [TRG 2405-171]
% Disp. MC-1 10 μM (first of duplicate): 63.1% | % Disp. MC-1 10 μM (second of duplicate): 49.7%

SMILES: CCCCNc1ccc(C2C(CN)c3ccccc3CN2CCCC(CN)NC)cc1 (centres unmarked) [TRG 2411-217]
pIC50 [2]: 7.05

SMILES: CCNc1ccc(C2C(CN)c3ccccc3CN2CCCC(N)CN)cc1 (mixture of isomers) [TRG 2411-174]
pIC50 [2]: 6.32

SMILES: CNC(CN)CN1Cc2ccccc2C(CNC2CCCCC2)C1c1ccc(Br)cc1 (mixture of isomers) [TRG 2405-152]
% Disp. MC-1 10 μM (first of duplicate): 52.8% | % Disp. MC-1 10 μM (second of duplicate): 52.9%

SMILES: CCCCNc1ccc(C2C(CNCCc3ccccc3)c3ccccc3CN2CCCCC(N)CN)cc1 (centres unmarked) [TRG 2411-72]
pIC50 [1]: 6.60

SMILES: CCNc1ccc(C2C(CN)c3ccccc3CN2CCCCC(CN)NCc2ccc(Cl)cc2)cc1 (centres unmarked) [TRG 2411-67]
pIC50 [1]: 6.68

SMILES: CCCCNc1ccc(C2C(CN)c3ccccc3CN2CCCCC(CN)NCc2ccc(Cl)cc2)cc1 (mixture of isomers) [TRG 2411-108]
pIC50 [1]: 6.80

SMILES: NCCN1Cc2ccccc2C(CNC2CCCCC2)C1c1ccc2ccccc2n1 (centres unmarked) [TRG 2405-22]
% Disp. MC-1 10 μM (first of duplicate): 29.7% | % Disp. MC-1 10 μM (second of duplicate): 43.4%

SMILES: CCCCNc1ccc(C2C(CN)c3ccccc3CN2CCCC(CN)NCc2ccc(OC)cc2)cc1 (centres unmarked) [TRG 2409-226]
pIC50 [1]: 7.00

SMILES: CNC(CN)CCCCN1Cc2ccccc2C(CNC2CCCCC2)C1c1ccc2c(c1)OCCO2 (mixture of isomers) [TRG 2405-183]
% Disp. of 125I-HP 467 (first of duplicate): 58.9% | % Disp. of 125I-HP 467 (second of duplicate): 64.1%

SMILES: CCNc1ccc(C2C(CNC3CCCCC3)c3ccccc3CN2CCN)cc1 (centres unmarked) [TRG 2405-59]
% Disp. MC-1 10 μM (first of duplicate): 34.3% | % Disp. MC-1 10 μM (second of duplicate): 40.1%

SMILES: CCNc1ccc(C2C(CNCCc3ccccc3)c3ccccc3CN2CCCCC(N)CN)cc1 (centres unmarked) [TRG 2411-36]
pIC50 [1]: 6.89

SMILES: NCCN1Cc2ccccc2C(CNC2CCCCC2)C1c1ccc(C(F)(F)F)cc1 (centres unmarked) [TRG 2405-58]
% Disp. MC-1 10 μM (first of duplicate): 56.3% | % Disp. MC-1 10 μM (second of duplicate): 46.6%

SMILES: CCCCNc1ccc(C2C(CNCCc3ccccc3)c3ccccc3CN2CCCC(CN)NCCc2ccc3ccccc3c2)cc1 (centres unmarked) [TRG 2411-199]
pIC50 [2]: 6.77

SMILES: NCCN1Cc2ccccc2C(CNC2CCCCC2)C1c1ccc2c(c1)OCCO2 (centres unmarked) [TRG 2405-3]
% Disp. MC-1 10 μM (first of duplicate): 46.8% | % Disp. MC-1 10 μM (second of duplicate): 44.2%

SMILES: CNC(CN)CN1Cc2ccccc2C(CNC2CCCCC2)C1c1ccc(OC)c(F)c1 (centres unmarked) [TRG 2405-130]
% Disp. MC-1 10 μM (first of duplicate): 48.9% | % Disp. MC-1 10 μM (second of duplicate): 43.3%

SMILES: CNC(CN)CN1Cc2ccccc2C(CNC2CCCCC2)C1c1cc(O)cc(O)c1 (centres unmarked) [TRG 2405-119]
% Disp. MC-1 10 μM (first of duplicate): 25.9% | % Disp. MC-1 10 μM (second of duplicate): 39.8%

SMILES: CNC(CN)CCCCN1Cc2ccccc2C(CNC2CCCCC2)C1c1cccc(C)n1 (centres unmarked) [TRG 2405-261]
% Disp. of 125I-HP 467 (first of duplicate): 45.9% | % Disp. of 125I-HP 467 (second of duplicate): 47.8%

SMILES: CNC(CN)CN1Cc2ccccc2C(CNC2CCCCC2)C1c1ccccc1O (centres unmarked) [TRG 2405-92]
% Disp. MC-1 10 μM (first of duplicate): 57.6% | % Disp. MC-1 10 μM (second of duplicate): 49.9%

SMILES: CCCCNc1ccc(C2C(CNC3CCCCC3)c3ccccc3CN2CCCC(N)CN)cc1 (centres unmarked) [TRG 2411-202]
pIC50 [2]: 6.66

More lines, now with the values ahead:

pIC50 [1]: 5.81
SMILES: CCCCNC(CN)CCCN1Cc2ccccc2C(CNCCc2ccccc2)C1c1ccc(-c2ccccc2)cc1 (centres unmarked) [TRG 2411-124]

pIC50 [1]: 6.66
SMILES: CCNc1ccc(C2C(CNCCc3ccccc3)c3ccccc3CN2CCCCC(CN)NCCC2CCCCC2)cc1 (centres unmarked) [TRG 2411-47]

pIC50 [2]: 6.66
SMILES: CCNc1ccc(C2C(CNC3CCCCC3)c3ccccc3CN2CCCC(CN)NCCc2ccc3ccccc3c2)cc1 (centres unmarked) [TRG 2411-172]

pIC50 [1]: 5.70
SMILES: NCC(CCCN1Cc2ccccc2C(CNC2CCCCC2)C1c1ccc(-c2ccccc2)cc1)NCc1ccccc1 (centres unmarked) [TRG 2411-135]

pIC50 [1]: 6.01
SMILES: CNCCNC(CN)CCCN1Cc2ccccc2C(CNCCc2ccccc2)C1c1ccc(-c2ccccc2)cc1 (centres unmarked) [TRG 2411-117]

% Disp. of 125I-HP 467 (first of duplicate): 37.5% | % Disp. of 125I-HP 467 (second of duplicate): 44.4%
SMILES: CNC(CN)CCCCN1Cc2ccccc2C(CNC2CCCCC2)C1c1ccccc1O (mixture of isomers) [TRG 2405-182]

pIC50 [1]: 5.83
SMILES: NCC(CCCN1Cc2ccccc2C(CNC2CCCCC2)C1c1ccc(-c2ccccc2)cc1)NCC1CCCCC1 (centres unmarked) [TRG 2411-134]

pIC50 [1]: 6.10
SMILES: NCCN[C@H](CN)CCCCN1Cc2ccccc2C(CNCCc2ccccc2)C1c1ccc(-c2ccccc2)cc1 (some centres unmarked) [TRG 2411-5]

% Disp. of 125I-HP 467 (first of duplicate): 82.3% | % Disp. of 125I-HP 467 (second of duplicate): 83%
SMILES: CNC(CN)CCCCN1Cc2ccccc2C(CNC2CCCCC2)C1c1ccc(C)cc1 (centres unmarked) [TRG 2405-249]

pIC50 [1]: 5.77
SMILES: NCC(CCCN1Cc2ccccc2C(CNCCc2ccccc2)C1c1ccc(-c2ccccc2)cc1)NCCO (centres unmarked) [TRG 2411-120]

pIC50 [1]: 6.12
SMILES: CNC(CNC(CN)CCCCN1Cc2ccccc2C(CNCCc2ccccc2)C1c1ccc(-c2ccccc2)cc1)Cc1ccccc1 (centres unmarked) [TRG 2411-8]
